According to US20230365553A1, “COMPOUNDS AND COMPOSITIONS FOR TREATING CONDITIONS ASSOCIATED WITH STING ACTIVITY” (IFM Due, Inc., priority 2020, published 2023):

Biological target: T1, STING (Homo sapiens, UniProt Q86WV6, G230A/H232R/R293Q/R71H)
T1 construct: host or cells: THP1-Dual KO-IFNAR2 cells
Experiment: STING reporter assay: luciferase reporter activity in THP1-Dual KO-IFNAR2 cells stimulated with 2′3′cGAMP
Format: cell-based
Conditions: 15 μM 2′3′cGAMP, 24h, read-out: hSTING EC50
Method: STING pathway activation by the compounds described herein was measured using THP 1-Dual™ cells (KO-IFNAR2).
THP1-Dual™ KO-IFNAR2 Cells (obtained from invivogen) were maintained in RPMI, 10% FCS, 5 ml P/S, 2 mM L-glut, 10 mM Hepes, and 1 mM sodium pyruvate. Compounds were spotted in empty 384 well tissue culture plates (Greiner 781182) by Echo for a final concentration of 0.0017-100 μM. Cells were plated into the TC plates at 40 μL per well, 2×10E6 cells/mL. For activation with STING ligand, 2′3′cGAMP (MW 718.38, obtained from Invivogen), was prepared in Optimem media.
The following solutions were prepared for each 1×384 plate: • Solution A: 2 mL Optimem with one of the following stimuli: • 60 μL of 10 mM 2′3′cGAMP→150 μM stock • Solution B: 2 mL Optimem with 60 μL Lipofectamine 2000→Incubate 5 min at RT
2 mL of solution A and 2 ml Solution B was mixed and incubated for 20 min at room temperature (RT). 20 μL of transfection solution (A+B) was added on top of the plated cells, with a final 2′3′cGAMP concentration of 15 μM. The plates were then centrifuged immediately at 340 g for 1 minute, after which they were incubated at 37° C., 5% CO2, >98% humidity for 24h. Luciferase reporter activity was then measured. EC50 values were calculated by using standard methods known in the art.
Luciferase reporter assay: 10 μL of supernatant from the assay was transferred to white 384-plate with flat bottom and squared wells. One pouch of QUANTI-Luc™ Plus was dissolved in 25 mL of water. 100 μL of QLC Stabilizer per 25 mL of QUANTI-Luc™ Plus solution was added. 50 μL of QUANTI-Luc™ Plus/QLC solution per well was then added. Luminescence was measured on a Platereader (e.g., Spectramax I3X (Molecular Devices GF3637001)).
Luciferase reporter activity was then measured. EC50 values were calculated by using standard methods known in the art.

T1 sequence (Q86WV6 whole entry R71H/G230A/H232R/R293Q): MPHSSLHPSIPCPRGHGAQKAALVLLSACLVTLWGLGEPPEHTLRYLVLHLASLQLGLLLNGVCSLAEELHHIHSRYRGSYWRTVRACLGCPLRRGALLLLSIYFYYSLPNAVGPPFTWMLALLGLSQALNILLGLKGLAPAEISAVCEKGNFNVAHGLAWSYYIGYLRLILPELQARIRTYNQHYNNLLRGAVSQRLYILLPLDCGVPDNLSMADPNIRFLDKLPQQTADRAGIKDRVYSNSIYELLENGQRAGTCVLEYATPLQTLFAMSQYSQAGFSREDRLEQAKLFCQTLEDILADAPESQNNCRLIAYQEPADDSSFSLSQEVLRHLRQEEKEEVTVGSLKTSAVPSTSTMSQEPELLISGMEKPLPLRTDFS

Row | SMILES | EC50
1 | CCC(=O)Nc1c[nH]c2ccc(-c3cnn(-c4cnc(CC)cn4)c3)cc12 [Compound 248, N-(5-(1-(5-ethylpyrazin-2-yl)-1H-pyrazol-4-yl)-1H-indol-3-yl)propionamide] | 1000 to 5000 nM
2 | C[C@@H](c1cccc(C(F)(F)F)c1)n1cc(-c2ccc3[nH]cc(NC(=O)C4CCC4)c3c2)cn1 [Compound 243, (S)-N-(5-(1-(1-(3-(trifluoromethyl)phenyl)ethyl)-1H-pyrazol-4-yl)-1H-indol-3-yl)cyclobutanecarboxamide] | 200 to 1000 nM
3 | O=C(Nc1c[nH]c2ccc(-c3cnn(-c4ccc(C(F)(F)F)cc4)c3)cc12)C(CO)C(F)(F)F (centres unmarked) [Compound 196, 3,3,3-trifluoro-2-(hydroxymethyl)-N-(5-(1-(4-(trifluoromethyl)phenyl)-1H-pyrazol-4-yl)-1H-indol-3-yl)propanamide] | 1000 to 5000 nM
4 | O=C(Nc1c[nH]c2ccc(-c3cnn(-c4ccc(C(F)(F)F)cc4)c3)cc12)C1CCC(CO)CC1 (centres unmarked) [Compound 188, 4-(hydroxymethyl)-N-(5-(1-(4-(trifluoromethyl)phenyl)-1H-pyrazol-4-yl)-1H-indol-3-yl)cyclohexane-1-carboxamide] | 1000 to 5000 nM
5 | O=C(Nc1c[nH]c2ccc(-c3cnn(-c4ccc(C(F)(F)F)cc4)c3)cc12)c1ccno1 [Compound 262, N-(5-(1-(4-(trifluoromethyl)phenyl)-1H-pyrazol-4-yl)-1H-indol-3-yl)isoxazole-5-carboxamide] | 200 to 1000 nM
6 | CCC(=O)Nc1c[nH]c2ccc(-c3cnn(CC4CC4)c3)cc12 [Compound 148, N-(5-(1-(cyclopropylmethyl)-1H-pyrazol-4-yl)-1H-indol-3-yl)propionamide] | 5000 to 100000 nM
7 | Cn1ccnc1C(=O)Nc1c[nH]c2ccc(-c3cnn(-c4ccc(C(F)(F)F)cc4)c3)cc12 [Compound 269, 1-methyl-N-(5-(1-(4-(trifluoromethyl)phenyl)-1H-pyrazol-4-yl)-1H-indol-3-yl)-1H-imidazole-2-carboxamide] | 1000 to 5000 nM
8 | O=C(Nc1c[nH]c2ccc(-c3cnn(-c4ccc(C(F)(F)F)cc4)c3)cc12)C1(O)CCCCC1 [Compound 187, 1-hydroxy-N-(5-(1-(4-(trifluoromethyl)phenyl)-1H-pyrazol-4-yl)-1H-indol-3-yl)cyclohexane-1-carboxamide] | 200 to 1000 nM
9 | CCC(=O)Nc1c[nH]c2ccc(-c3cnn(-c4ccc(CC)cc4)c3)cc12 [Compound 151, N-(5-(1-(4-ethylphenyl)-1H-pyrazol-4-yl)-1H-indol-3-yl)propionamide] | 40 to 200 nM
10 | CC(=O)Nc1c[nH]c2ccc(-c3cnn(-c4ccc(C5(C)CCCCC5)cc4)c3)cc12 [Compound 171, N-(5-(1-(4-(1-methylcyclohexyl)phenyl)-1H-pyrazol-4-yl)-1H-indol-3-yl)acetamide] | 1000 to 5000 nM
11 | CN1CCC(C(=O)Nc2c[nH]c3ccc(-c4cnn(-c5ccc(C(F)(F)F)cc5)c4)cc23)CC1=O (centres unmarked) [Compound 231, 1-methyl-2-oxo-N-(5-(1-(4-(trifluoromethyl)phenyl)-1H-pyrazol-4-yl)-1H-indol-3-yl)piperidine-4-carboxamide] | 1000 to 5000 nM
12 | CCc1ccc(-n2cc(-c3ccc4[nH]cc(NC(=O)C(C)NC(=O)OC(C)(C)C)c4c3)cn2)cc1 (centres unmarked) [Compound 114, tert-butyl (1-((5-(1-(4-ethylphenyl)-1H-pyrazol-4-yl)-1H-indol-3-yl)amino)-1-oxopropan-2-yl)carbamate] | 200 to 1000 nM
13 | CC(C)[C@H](O)C(=O)Nc1c[nH]c2ccc(-c3cnn(-c4ccc(C(F)(F)F)cc4)c3)cc12 [Compound 204, (S)-2-hydroxy-3-methyl-N-(5-(1-(4-(trifluoromethyl)phenyl)-1H-pyrazol-4-yl)-1H-indol-3-yl)butanamide] | 1000 to 5000 nM
14 | CCc1ccc(-n2cc(-c3ccc4[nH]cc(NC(=O)CCC#N)c4c3)cn2)cc1 [Compound 107, 3-cyano-N-(5-(1-(4-ethylphenyl)-1H-pyrazol-4-yl)-1H-indol-3-yl)propanamide] | 200 to 1000 nM
15 | O=C(Nc1c[nH]c2ccc(-c3cnn(-c4ccc(C(F)(F)F)cc4)c3)cc12)c1cn[nH]c1 [Compound 266, N-(5-(1-(4-(trifluoromethyl)phenyl)-1H-pyrazol-4-yl)-1H-indol-3-yl)-1H-pyrazole-4-carboxamide] | 200 to 1000 nM
16 | CCC(=O)Nc1c[nH]c2ccc(-c3cnn(-c4cccc(CC)c4)c3)cc12 [Compound 128, N-(5-(1-(3-ethylphenyl)-1H-pyrazol-4-yl)-1H-indol-3-yl)propionamide] | 200 to 1000 nM

Row | SMILES | EC50
17 | CC(=O)Nc1c[nH]c2ccc(-c3cnn(C(C)c4cccc(C(F)(F)F)c4)c3)cc12 (centres unmarked) [Compound 179, N-(5-(1-(1-(3-(trifluoromethyl)phenyl)ethyl)-1H-pyrazol-4-yl)-1H-indol-3-yl)acetamide] | 200 to 1000 nM
18 | CCC(=O)Nc1c[nH]c2ccc(-c3cnn(-c4ccc(C(F)(F)F)c(C)c4)c3)cc12 [Compound 109, N-(5-(1-(3-methyl-4-(trifluoromethyl)phenyl)-1H-pyrazol-4-yl)-1H-indol-3-yl)propionamide] | 200 to 1000 nM
19 | CCc1ccc(-n2cc(-c3ccc4[nH]cc(NC(=O)C5CC(=O)N5)c4c3)cn2)cc1 (centres unmarked) [Compound 121, N-(5-(1-(4-ethylphenyl)-1H-pyrazol-4-yl)-1H-indol-3-yl)-4-oxoazetidine-2-carboxamide] | 200 to 1000 nM
20 | CC1(C(=O)Nc2c[nH]c3ccc(-c4cnn(-c5ccc(C(F)(F)F)cc5)c4)cc23)CCOCC1 [Compound 222, 4-methyl-N-(5-(1-(4-(trifluoromethyl)phenyl)-1H-pyrazol-4-yl)-1H-indol-3-yl)tetrahydro-2H-pyran-4-carboxamide] | 1000 to 5000 nM
21 | CC(c1cccc(C(F)(F)F)c1)n1cc(-c2ccc3[nH]cc(NC(=O)C4CCC4)c3c2)cn1 (centres unmarked) [Compound 257, N-(5-(1-(1-(3-(trifluoromethyl)phenyl)ethyl)-1H-pyrazol-4-yl)-1H-indol-3-yl)cyclobutanecarboxamide] | 200 to 1000 nM
22 | CCC(=O)Nc1c[nH]c2ccc(-c3cccc(COC)c3)cc12 [Compound 145, N-(5-(3-(methoxymethyl)phenyl)-1H-indol-3-yl)propionamide] | 5000 to 100000 nM
23 | CC(=O)Nc1c[nH]c2ccc(-c3cnn(-c4ccc(C5CC(F)(F)C5)c(Cl)c4)c3)cc12 [Compound 169, N-(5-(1-(3-chloro-4-(3,3-difluorocyclobutyl)phenyl)-1H-pyrazol-4-yl)-1H-indol-3-yl)acetamide] | 200 to 1000 nM
24 | COC(C)C(=O)Nc1c[nH]c2ccc(-c3cnn(-c4ccc(C(F)(F)F)cc4)c3)cc12 (centres unmarked) [Compound 227, 2-methoxy-N-(5-(1-(4-(trifluoromethyl)phenyl)-1H-pyrazol-4-yl)-1H-indol-3-yl)propanamide] | 1000 to 5000 nM
25 | CCC(=O)Nc1c[nH]c2ccc(C3=CCCCC3)cc12 [Compound 141, N-(5-(cyclohex-1-en-1-yl)-1H-indol-3-yl)propionamide] | 5000 to 100000 nM
26 | O=C(Nc1c[nH]c2ccc(-c3cnn(-c4ccc(C(F)(F)F)cc4)c3)cc12)C1(O)CCCC1 [Compound 186, 1-hydroxy-N-(5-(1-(4-(trifluoromethyl)phenyl)-1H-pyrazol-4-yl)-1H-indol-3-yl)cyclopentane-1-carboxamide] | 200 to 1000 nM
27 | N#CC1(C(=O)Nc2c[nH]c3ccc(-c4cnn(-c5ccc(C(F)(F)F)cc5)c4)cc23)CC1 [Compound 235, 1-cyano-N-(5-(1-(4-(trifluoromethyl)phenyl)-1H-pyrazol-4-yl)-1H-indol-3-yl)cyclopropane-1-carboxamide] | 1000 to 5000 nM
28 | COCCCC(=O)Nc1c[nH]c2ccc(-c3cnn(-c4ccc(C(F)(F)F)cc4)c3)cc12 [Compound 177, 4-methoxy-N-(5-(1-(4-(trifluoromethyl)phenyl)-1H-pyrazol-4-yl)-1H-indol-3-yl)butanamide] | 40 to 200 nM
29 | O=C(Nc1c[nH]c2ncc(-c3cnn(-c4ccc(C(F)(F)F)cc4)c3)cc12)C1CCC1 [Compound 251, N-(5-(1-(4-(trifluoromethyl)phenyl)-1H-pyrazol-4-yl)-1H-pyrrolo[2,3-b]pyridin-3-yl)cyclobutanecarboxamide] | 5000 to 100000 nM
30 | CC(C)n1cc(C(=O)Nc2c[nH]c3ccc(-c4cnn(-c5ccc(C(F)(F)F)cc5)c4)cc23)nn1 [Compound 283, 1-isopropyl-N-(5-(1-(4-(trifluoromethyl)phenyl)-1H-pyrazol-4-yl)-1H-indol-3-yl)-1H-1,2,3-triazole-4-carboxamide] | 200 to 1000 nM
31 | O=C(Nc1c[nH]c2ccc(-c3cnn(-c4ccc(C(F)(F)F)cc4)c3)cc12)C1(O)CCC1 [Compound 202, 1-hydroxy-N-(5-(1-(4-(trifluoromethyl)phenyl)-1H-pyrazol-4-yl)-1H-indol-3-yl)cyclobutane-1-carboxamide] | 200 to 1000 nM
32 | CC(=O)Nc1c[nH]c2ccc(-c3cnn(-c4ccc(CC(F)(F)F)cc4)c3)cc12 [Compound 167, N-(5-(1-(4-(2,2,2-trifluoroethyl)phenyl)-1H-pyrazol-4-yl)-1H-indol-3-yl)acetamide] | 40 to 200 nM
